Measured values as given in publication PMC3310290 (Bioconjugate Chemistry, 2012).
Values belong to the compound of their own block, whether it stands above or below them. Positions of bridges follow the written chain, without caps; N, C: chain ends. Residues, ends and D or L forms follow the SMILES beside them. *: point of attachment. 5FAM = O=C1OC2(c3ccc(O)cc3Oc3cc(O)ccc32)c2ccc(C(=O)*)cc21; DTPA = O=C(O)CN(CCN(CC(=O)O)CC(=O)O)CCN(CC(=O)O)CC(=O)*; Ahx = NCCCCCC(=O)O

Experiments:
fibrin [1] = target: T1, fibrin (Homo sapiens, UniProt P02671+P02675+P02679); assay: Solvent water 1H relaxation rate; assay type: physicochemical; conditions: 30 μM fibrin, 0.47T, 37°C
T1 sequence (P02671 36-866 limits assumed): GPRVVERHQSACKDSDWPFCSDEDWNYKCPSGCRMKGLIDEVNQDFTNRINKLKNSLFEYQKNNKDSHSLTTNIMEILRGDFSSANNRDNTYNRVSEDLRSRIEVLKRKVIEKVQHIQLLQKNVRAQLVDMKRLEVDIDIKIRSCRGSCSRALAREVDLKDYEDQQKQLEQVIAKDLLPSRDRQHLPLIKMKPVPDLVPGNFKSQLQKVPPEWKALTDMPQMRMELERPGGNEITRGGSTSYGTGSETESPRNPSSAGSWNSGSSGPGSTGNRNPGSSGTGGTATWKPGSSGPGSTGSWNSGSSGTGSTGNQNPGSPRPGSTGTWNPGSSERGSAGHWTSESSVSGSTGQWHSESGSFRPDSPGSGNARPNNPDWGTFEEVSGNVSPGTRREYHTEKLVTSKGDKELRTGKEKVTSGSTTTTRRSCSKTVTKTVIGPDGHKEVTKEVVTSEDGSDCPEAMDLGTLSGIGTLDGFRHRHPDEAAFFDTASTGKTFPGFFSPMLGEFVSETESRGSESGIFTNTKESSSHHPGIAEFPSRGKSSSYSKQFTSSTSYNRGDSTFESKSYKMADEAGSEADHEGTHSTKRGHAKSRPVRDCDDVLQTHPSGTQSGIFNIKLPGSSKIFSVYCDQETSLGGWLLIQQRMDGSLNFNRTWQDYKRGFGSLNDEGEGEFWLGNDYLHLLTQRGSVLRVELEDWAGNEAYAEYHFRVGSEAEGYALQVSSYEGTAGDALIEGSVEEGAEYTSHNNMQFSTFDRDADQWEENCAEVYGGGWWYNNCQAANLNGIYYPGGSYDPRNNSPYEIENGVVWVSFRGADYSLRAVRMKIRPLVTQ
T1 sequence (P02675 45-491 limits assumed): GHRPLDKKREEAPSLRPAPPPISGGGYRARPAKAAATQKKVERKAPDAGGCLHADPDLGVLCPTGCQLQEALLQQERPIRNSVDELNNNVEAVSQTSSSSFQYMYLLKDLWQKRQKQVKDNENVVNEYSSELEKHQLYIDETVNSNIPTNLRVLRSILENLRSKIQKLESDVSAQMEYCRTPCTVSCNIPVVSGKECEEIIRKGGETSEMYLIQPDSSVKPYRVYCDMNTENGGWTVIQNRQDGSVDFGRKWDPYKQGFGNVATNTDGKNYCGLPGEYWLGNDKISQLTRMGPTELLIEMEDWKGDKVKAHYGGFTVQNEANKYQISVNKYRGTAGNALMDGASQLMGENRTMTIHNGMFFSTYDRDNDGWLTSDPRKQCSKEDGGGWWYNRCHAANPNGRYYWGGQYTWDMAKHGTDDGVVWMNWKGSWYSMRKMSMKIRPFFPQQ
T1 sequence (P02679 27-433 limits assumed): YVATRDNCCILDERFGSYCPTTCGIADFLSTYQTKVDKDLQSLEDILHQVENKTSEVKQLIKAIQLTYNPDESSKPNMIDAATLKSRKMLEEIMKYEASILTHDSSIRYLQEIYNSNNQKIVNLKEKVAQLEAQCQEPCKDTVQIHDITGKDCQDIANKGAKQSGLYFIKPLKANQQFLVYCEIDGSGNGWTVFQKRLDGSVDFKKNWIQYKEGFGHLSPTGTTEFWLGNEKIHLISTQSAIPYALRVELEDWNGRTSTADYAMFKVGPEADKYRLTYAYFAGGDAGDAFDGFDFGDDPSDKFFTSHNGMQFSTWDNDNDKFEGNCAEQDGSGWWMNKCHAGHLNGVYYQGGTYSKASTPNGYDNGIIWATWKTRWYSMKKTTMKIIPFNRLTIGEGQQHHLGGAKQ

fibrinogen = target: T2, fibrinogen (Homo sapiens, UniProt P02671+P02675+P02679); assay: Fluorescence polarization, binding to fibrinogen; conditions: fluorescence anisotropy
T2 sequence (P02671 20-629 limits assumed): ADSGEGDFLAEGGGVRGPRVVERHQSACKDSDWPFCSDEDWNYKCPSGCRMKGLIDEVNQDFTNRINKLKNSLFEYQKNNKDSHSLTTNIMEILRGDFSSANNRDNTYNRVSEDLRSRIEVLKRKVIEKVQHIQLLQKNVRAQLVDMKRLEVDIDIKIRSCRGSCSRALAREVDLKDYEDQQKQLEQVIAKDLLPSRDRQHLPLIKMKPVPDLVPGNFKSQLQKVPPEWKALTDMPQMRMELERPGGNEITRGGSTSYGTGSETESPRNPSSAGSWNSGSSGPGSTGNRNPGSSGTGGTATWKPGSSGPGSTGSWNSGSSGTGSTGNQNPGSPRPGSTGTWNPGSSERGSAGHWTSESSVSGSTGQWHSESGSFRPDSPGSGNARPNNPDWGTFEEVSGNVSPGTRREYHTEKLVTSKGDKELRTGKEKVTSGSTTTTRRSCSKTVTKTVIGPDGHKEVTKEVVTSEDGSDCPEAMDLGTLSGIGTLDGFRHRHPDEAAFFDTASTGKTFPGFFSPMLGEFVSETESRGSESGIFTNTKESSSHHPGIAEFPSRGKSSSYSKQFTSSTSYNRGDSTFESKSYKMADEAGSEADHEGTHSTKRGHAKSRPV
T2 sequence (P02675 31-491): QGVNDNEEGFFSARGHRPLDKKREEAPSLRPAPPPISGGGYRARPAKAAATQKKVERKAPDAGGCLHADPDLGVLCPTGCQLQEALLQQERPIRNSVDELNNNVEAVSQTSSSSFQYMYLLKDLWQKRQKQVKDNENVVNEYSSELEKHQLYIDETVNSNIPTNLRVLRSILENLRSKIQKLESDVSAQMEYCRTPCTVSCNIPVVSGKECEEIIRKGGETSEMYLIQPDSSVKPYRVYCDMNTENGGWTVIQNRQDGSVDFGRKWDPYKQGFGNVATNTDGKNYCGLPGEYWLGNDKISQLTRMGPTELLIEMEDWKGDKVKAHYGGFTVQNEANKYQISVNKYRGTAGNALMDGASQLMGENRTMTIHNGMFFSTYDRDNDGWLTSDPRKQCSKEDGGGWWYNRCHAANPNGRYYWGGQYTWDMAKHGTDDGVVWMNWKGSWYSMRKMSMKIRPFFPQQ
T2 sequence (P02679 27-433 limits assumed): T1 sequence (P02679 27-433 limits assumed)

fibrin [2] = target: T1, fibrin; conditions: ref [15]; cited from earlier work

- enhancement of 1/T1 in fibrin gel compared to buffer (fibrin [1]): no enhancement of 1/T1
Compound: O=C([O-])CN(CCN(CC(=O)[O-])CC(=O)O)CCN(CC(=O)[O-])CC(=O)O.[Gd+3] [GdDTPA, diethylenetriaminepentaaceto gadolinium(III), reference compound]

Compound: CC[C@H](C)[C@H](NC(=O)[C@H](Cc1c[nH]c2ccccc12)NC(=O)[C@@H]1CSSC[C@H](NC(=O)[C@H](CCC(=O)O)NC(=O)[C@H](Cc2c[nH]c3ccccc23)NC(=O)[C@H](CCC(N)=O)NC(=O)CCCCCNC(=O)c2ccc3c(c2)C(=O)OC32c3ccc(O)cc3Oc3cc(O)ccc32)C(=O)N2CCC[C@H]2C(=O)N[C@@H](Cc2ccc(O)cc2)C(=O)NCC(=O)N[C@@H](CC(C)C)C(=O)N1)C(=O)N[C@@H](CCC(N)=O)C(N)=O [Tn6-2b-Fl, Fluor-Aca-QWECPYGLCWIQ] ({5FAM-Ahx}-QWECPYGLCWIQ-NH2; disulfide 4-9)
- fibrinogen binding weaker than to DD(E) (fibrinogen): 400 fold

Compound: DTPA-GYLCGDYTLCPD-NH2 ({DTPA}-GYLCGDYTLCPD-NH2; not fully specified (bridges); cysteine pairing not given here)
- fibrin binding (in words) (fibrin [2]): No measurable fibrin binding
